Patent publication US12187723B2 (BRISTOL-MYERS SQUIBB COMPANY, priority 2019, dated 2025)

Tests used:
Type in all cases: cell-based
[1] = target: T1, human TLR7 (Homo sapiens, UniProt Q9NYK1); experiment: TLR7 inhibition reporter assay (HEK-Blue SEAP); conditions: HEK-Blue cells overexpressing human TLR7, gardiquimod 7.5 μM, 22 hour incubation
T1 construct: host or cells: HEK-Blue cells
T1 sequence (Q9NYK1 27-1049): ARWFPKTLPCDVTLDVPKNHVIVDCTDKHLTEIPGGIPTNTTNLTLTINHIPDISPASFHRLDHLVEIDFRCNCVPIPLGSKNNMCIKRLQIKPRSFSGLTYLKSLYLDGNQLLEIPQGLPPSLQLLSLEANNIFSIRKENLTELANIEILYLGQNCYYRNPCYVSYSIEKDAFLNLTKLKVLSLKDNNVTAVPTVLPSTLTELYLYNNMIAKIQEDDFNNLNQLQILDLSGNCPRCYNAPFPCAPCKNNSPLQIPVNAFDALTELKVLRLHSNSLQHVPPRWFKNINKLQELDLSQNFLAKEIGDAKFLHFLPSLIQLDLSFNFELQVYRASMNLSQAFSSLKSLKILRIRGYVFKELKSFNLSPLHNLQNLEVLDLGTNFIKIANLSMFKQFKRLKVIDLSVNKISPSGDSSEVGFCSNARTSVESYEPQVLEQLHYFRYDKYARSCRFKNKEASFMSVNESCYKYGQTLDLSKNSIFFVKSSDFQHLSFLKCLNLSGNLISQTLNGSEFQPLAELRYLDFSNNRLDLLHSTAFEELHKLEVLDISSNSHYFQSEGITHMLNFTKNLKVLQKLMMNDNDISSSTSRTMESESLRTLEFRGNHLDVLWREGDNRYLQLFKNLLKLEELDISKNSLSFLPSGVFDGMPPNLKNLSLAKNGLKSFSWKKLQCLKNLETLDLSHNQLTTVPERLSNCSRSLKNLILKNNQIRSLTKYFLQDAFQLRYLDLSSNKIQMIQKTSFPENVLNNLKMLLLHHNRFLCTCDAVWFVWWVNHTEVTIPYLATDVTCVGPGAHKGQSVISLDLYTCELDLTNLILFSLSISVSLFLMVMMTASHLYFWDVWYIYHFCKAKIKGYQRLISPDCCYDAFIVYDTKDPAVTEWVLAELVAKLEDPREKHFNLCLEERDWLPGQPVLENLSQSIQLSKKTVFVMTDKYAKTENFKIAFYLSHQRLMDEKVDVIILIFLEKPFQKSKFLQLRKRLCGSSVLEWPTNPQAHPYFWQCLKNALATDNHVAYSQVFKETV
Method: (§1) TLR7/8/9 Inhibition Reporter Assays
Briefly, cells are seeded into Greiner 384 well plates (15000 cells per well for TLR7, 20,000 for TLR8 and 25,000 for TLR9) and then treated with test compounds in DMSO to yield a final dose response concentration range of 0.05 nM-50 μM. […] After a 22 hour incubation at 37° C., 5% CO2, SEAP levels are determined with the addition of HEK-Blue™ Detection reagent (Invivogen), a cell culture medium that allows for detection of SEAP, according to manufacturer's specifications. The percent inhibition is determined as the % reduction in the HEK-Blue signal present in wells treated with agonist plus DMSO alone compared to wells treated with a known inhibitor.

[2] = target: T2, human TLR8 (Homo sapiens, UniProt Q9NR97); experiment: TLR8 inhibition reporter assay (HEK-Blue SEAP); conditions: HEK-Blue cells overexpressing human TLR8, R848 15.9 μM, 22 hour incubation
T2 construct: host or cells: HEK-Blue cells
T2 sequence (Q9NR97 27-1041): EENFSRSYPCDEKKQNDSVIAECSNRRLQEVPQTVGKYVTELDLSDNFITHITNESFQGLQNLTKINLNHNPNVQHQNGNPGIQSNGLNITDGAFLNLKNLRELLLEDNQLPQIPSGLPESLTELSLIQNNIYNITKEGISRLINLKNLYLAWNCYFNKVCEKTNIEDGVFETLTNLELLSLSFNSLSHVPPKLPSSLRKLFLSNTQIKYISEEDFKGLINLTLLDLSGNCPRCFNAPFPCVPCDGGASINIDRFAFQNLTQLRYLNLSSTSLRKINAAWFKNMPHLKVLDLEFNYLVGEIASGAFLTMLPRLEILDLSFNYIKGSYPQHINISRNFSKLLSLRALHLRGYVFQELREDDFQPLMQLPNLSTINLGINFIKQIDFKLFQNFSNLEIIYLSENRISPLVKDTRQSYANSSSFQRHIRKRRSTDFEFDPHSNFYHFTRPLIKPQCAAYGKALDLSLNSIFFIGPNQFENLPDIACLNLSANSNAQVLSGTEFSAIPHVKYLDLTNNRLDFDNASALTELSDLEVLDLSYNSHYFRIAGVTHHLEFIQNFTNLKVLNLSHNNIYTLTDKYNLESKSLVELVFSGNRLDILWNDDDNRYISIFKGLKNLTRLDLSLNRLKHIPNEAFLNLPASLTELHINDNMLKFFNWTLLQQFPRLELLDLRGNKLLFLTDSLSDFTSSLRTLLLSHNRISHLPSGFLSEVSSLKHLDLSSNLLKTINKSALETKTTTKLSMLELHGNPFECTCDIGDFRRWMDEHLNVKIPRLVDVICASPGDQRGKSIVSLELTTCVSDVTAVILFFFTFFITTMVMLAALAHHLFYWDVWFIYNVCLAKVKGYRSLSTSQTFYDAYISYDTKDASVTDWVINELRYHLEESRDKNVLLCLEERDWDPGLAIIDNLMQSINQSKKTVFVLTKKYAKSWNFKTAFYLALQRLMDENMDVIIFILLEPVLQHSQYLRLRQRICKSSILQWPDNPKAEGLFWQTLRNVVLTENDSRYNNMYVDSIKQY
Method: as §1
(§2) HEK-Blue™-cells (Invivogen) overexpressing human TLR7, TLR8 or TLR9 receptors were used for screening inhibitors of these receptors using an inducible SEAP (secreted embryonic alkaline phosphatase) reporter gene under the control of the IFN-β minimal promoter fused to five NF-κB and AP-1-binding sites. Briefly, cells are seeded into Greiner 384 well plates (15000 cells per well for TLR7, 20,000 for TLR8 and 25,000 for TLR9) and then treated with test compounds in DMSO to yield a final dose response concentration range of 0.05 nM-50 μM. After a 30 minute compound pre-treatment at room temperature, the cells are then stimulated with a TLR7 ligand (gardiquimod at a final concentration of 7.5 μM), TLR8 ligand (R848 at a final concentration of 15.9 μM) or TLR9 ligand (ODN2006 at a final concentration of 5 nM) to activate NF-κB and AP-1 which induce the production of SEAP. After a 22 hour incubation at 37° C., 5% CO2, SEAP levels are determined with the addition of HEK-Blue™ Detection reagent (Invivogen), a cell culture medium that allows for detection of SEAP, according to manufacturer's specifications. The percent inhibition is determined as the % reduction in the HEK-Blue signal present in wells treated with agonist plus DMSO alone compared to wells treated with a known inhibitor.

[3] = target: T3, human TLR9 (Homo sapiens, UniProt Q9NR96); experiment: TLR9 inhibition reporter assay (HEK-Blue SEAP); conditions: HEK-Blue cells overexpressing human TLR9, ODN2006 5 nM, 22 hour incubation
T3 construct: host or cells: HEK-Blue cells
T3 sequence (Q9NR96 26-1032): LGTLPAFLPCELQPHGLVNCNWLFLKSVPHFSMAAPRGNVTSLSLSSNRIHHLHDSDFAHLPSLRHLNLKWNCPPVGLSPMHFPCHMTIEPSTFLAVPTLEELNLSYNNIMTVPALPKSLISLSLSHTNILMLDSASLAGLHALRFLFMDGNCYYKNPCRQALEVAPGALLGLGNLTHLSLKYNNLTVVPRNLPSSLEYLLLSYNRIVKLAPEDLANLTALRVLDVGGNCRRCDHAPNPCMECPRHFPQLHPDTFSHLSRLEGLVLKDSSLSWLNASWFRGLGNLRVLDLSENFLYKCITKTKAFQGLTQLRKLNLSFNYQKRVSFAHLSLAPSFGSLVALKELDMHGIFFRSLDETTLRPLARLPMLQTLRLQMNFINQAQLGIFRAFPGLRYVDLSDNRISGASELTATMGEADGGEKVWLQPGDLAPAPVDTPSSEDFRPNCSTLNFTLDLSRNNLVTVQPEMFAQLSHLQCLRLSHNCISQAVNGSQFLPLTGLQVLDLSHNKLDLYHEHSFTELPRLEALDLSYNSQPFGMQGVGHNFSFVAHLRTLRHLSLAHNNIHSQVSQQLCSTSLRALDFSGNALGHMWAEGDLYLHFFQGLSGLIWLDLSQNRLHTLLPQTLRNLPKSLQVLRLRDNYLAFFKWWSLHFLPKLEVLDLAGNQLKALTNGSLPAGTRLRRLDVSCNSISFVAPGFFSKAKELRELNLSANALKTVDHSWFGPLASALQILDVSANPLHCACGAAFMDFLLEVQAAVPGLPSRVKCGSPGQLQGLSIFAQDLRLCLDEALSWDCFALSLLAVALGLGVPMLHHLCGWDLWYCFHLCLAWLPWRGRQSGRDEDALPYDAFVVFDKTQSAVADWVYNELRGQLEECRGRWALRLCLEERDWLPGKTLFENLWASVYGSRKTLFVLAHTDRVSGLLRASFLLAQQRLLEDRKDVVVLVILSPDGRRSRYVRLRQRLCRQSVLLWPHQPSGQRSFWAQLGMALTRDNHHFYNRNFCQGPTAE
Method: as §1, §2

Compound	IC50 [1] [nM]	IC50 [2] [nM]	IC50 [3] [nM]
COc1cc(-c2cc3[nH]c(=O)n(C4CCC(N5CC6(C5)CS(=O)(=O)C6)CC4)c3cc2C(C)C)cn2ncnc12 (single isomer, unassigned) [Example 244, 1-(4-(2,2-dioxido-2-thia-6-azaspiro[3.3]heptan-6-yl)cyclohexyl)-6-isopropyl-5-(8-methoxy-[1,2,4]triazolo[1,5-a]pyridin-6-yl)-1,3-dihydro-2H-benzo[d]imidazol-2-one]	8.3	3.54	
Cc1cc2c(cc1-c1cc(C)c3ncnn3c1)[nH]c(=O)n2[C@@H]1CCCN(CCC(C)C)C1 [Example 38, (R)-1-(1-isopentylpiperidin-3-yl)-6-methyl-5-(8-methyl-[1,2,4]triazolo[1,5-a]pyridin-6-yl)-1,3-dihydro-2H-benzo[d]imidazol-2-one]		16.7	5050
Cc1c(-c2cc3[nH]c(=O)n([C@@H]4CCCN(CC(C)(C)C)C4)c3cc2C(C)C)cn2ncnc2c1C [Example 152, (R)-5-(7,8-dimethyl-[1,2,4]triazolo[1,5-a]pyridin-6-yl)-6-isopropyl-1-(1-neopentylpiperidin-3-yl)-1,3-dihydro-2H-benzo[d]imidazol-2-one]	5.55	24.5	
CCc1cc2c(cc1-c1cc(OC)c3ncnn3c1)[nH]c(=O)n2[C@@H]1CCCN(C(C)CC)C1 (stereo partly drawn) [Example 176, 1-((3R)-1-(sec-butyl)piperidin-3-yl)-6-ethyl-5-(8-methoxy-[1,2,4]triazolo[1,5-a]pyridin-6-yl)-1,3-dihydro-2H-benzo[d]imidazol-2-one]	3.38	8	
CCc1cc2c(cc1-c1cc(OC)c3ncnn3c1)[nH]c(=O)n2[C@@H]1CCCN(C2CCCOC2)C1 (stereo partly drawn) [Example 214, 6-ethyl-5-(8-methoxy-[1,2,4]triazolo[1,5-a]pyridin-6-yl)-1-((3R)-1-(tetrahydro-2H-pyran-3-yl)piperidin-3-yl)-1,3-dihydro-2H-benzo[d]imidazol-2-one]	17.1	19.3	
